{"source": "PubChem BioAssay (NCI)", "assay_in_all_cases": "growth of human tumour cells (NCI), 48 h", "key": {"[1]": {"test_system": "BT-549 breast"}, "[2]": {"test_system": "K-562 leukemia"}, "[3]": {"test_system": "HOP-62 NSCLC"}, "[4]": {"test_system": "UACC-257 melanoma"}, "[5]": {"test_system": "786-0 renal"}, "[6]": {"test_system": "OVCAR-3 ovarian"}, "[7]": {"test_system": "HS 578T breast"}, "[8]": {"test_system": "DU-145 prostate"}, "[9]": {"test_system": "SW-620 colon"}, "[10]": {"test_system": "NCI-H226 lung"}, "[11]": {"test_system": "PC-3 prostate"}, "[12]": {"test_system": "SF-268 CNS"}, "[13]": {"test_system": "SR leukemia"}, "[14]": {"test_system": "UO-31 renal"}, "[15]": {"test_system": "SK-MEL-5 melanoma"}, "[16]": {"test_system": "NCI-H460 lung"}, "[17]": {"test_system": "ACHN renal"}, "[18]": {"test_system": "LOX IMVI melanoma"}, "[19]": {"test_system": "MDA-N"}, "[20]": {"test_system": "SK-MEL-2 melanoma"}, "[21]": {"test_system": "HCT-116 colon"}, "[22]": {"test_system": "CAKI-1 renal"}, "[23]": {"test_system": "IGROV1 ovarian"}, "[24]": {"test_system": "NCI-H23 lung"}, "[25]": {"test_system": "RPMI-8226 leukemia"}, "[26]": {"test_system": "U251 CNS"}, "[27]": {"test_system": "MCF7 breast"}, "[28]": {"test_system": "SNB-19 CNS"}, "[29]": {"test_system": "A549 NSCLC"}, "[30]": {"test_system": "MOLT-4 leukemia"}, "[31]": {"test_system": "SN12C renal"}, "[32]": {"test_system": "OVCAR-8 ovarian"}, "[33]": {"test_system": "NCI-H522 lung"}, "[34]": {"test_system": "MALME-3M melanoma"}, "[35]": {"test_system": "OVCAR-4 ovarian"}, "[36]": {"test_system": "HOP-92 NSCLC"}, "[37]": {"test_system": "MDA-MB-435"}, "[38]": {"test_system": "HCT-15 colon"}, "[39]": {"test_system": "HCC-2998 colon"}, "[40]": {"test_system": "SK-OV-3 ovarian"}, "[41]": {"test_system": "EKVX NSCLC"}, "[42]": {"test_system": "KM12 colon"}, "[43]": {"test_system": "UACC-62 melanoma"}, "[44]": {"test_system": "OVCAR-5 ovarian"}, "[45]": {"test_system": "M14 melanoma"}, "[46]": {"test_system": "NCI/ADR-RES ovarian"}, "[47]": {"test_system": "MDA-MB-231 breast"}}, "note": "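In this assay, cells in 96-well plates receive the compound at five concentrations for 48 hours. Endpoints are linearly interpolated between the surrounding concentrations. The concentration for full growth arrest is given as TGI.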"}
{"compound": "COc1cc(C2CC(C)(N3CCOCC3)Oc3cc4c(cc32)OCO4)cc(OC)c1OC", "note": "(configuration not stated)", "values": [{"measurement": "TGI", "setting": "[1]", "result": "> 100", "unit": "µM"}, {"measurement": "TGI", "setting": "[2]", "result": "> 100", "unit": "µM"}, {"measurement": "TGI", "setting": "[3]", "result": "> 100", "unit": "µM"}, {"measurement": "TGI", "setting": "[4]", "result": "> 100", "unit": "µM"}, {"measurement": "TGI", "setting": "[5]", "result": 11.5, "unit": "µM"}, {"measurement": "TGI", "setting": "[6]", "result": "> 100", "unit": "µM"}, {"measurement": "TGI", "setting": "[7]", "result": "> 56.2", "unit": "µM"}, {"measurement": "TGI", "setting": "[8]", "result": "> 33.1", "unit": "µM"}, {"measurement": "TGI", "setting": "[9]", "result": "> 100", "unit": "µM"}, {"measurement": "TGI", "setting": "[10]", "result": "> 88.4", "unit": "µM"}, {"measurement": "TGI", "setting": "[11]", "result": "> 100", "unit": "µM"}, {"measurement": "TGI", "setting": "[12]", "result": "> 100", "unit": "µM"}, {"measurement": "TGI", "setting": "[13]", "result": "> 100", "unit": "µM"}, {"measurement": "TGI", "setting": "[14]", "result": "> 100", "unit": "µM"}, {"measurement": "TGI", "setting": "[15]", "result": 1.54, "unit": "µM"}, {"measurement": "TGI", "setting": "[16]", "result": "> 100", "unit": "µM"}, {"measurement": "TGI", "setting": "[17]", "result": "> 100", "unit": "µM"}, {"measurement": "TGI", "setting": "[18]", "result": "> 100", "unit": "µM"}, {"measurement": "TGI", "setting": "[19]", "result": 0.439, "unit": "µM"}, {"measurement": "TGI", "setting": "[20]", "result": "> 35.9", "unit": "µM"}, {"measurement": "TGI", "setting": "[21]", "result": "> 100", "unit": "µM"}, {"measurement": "TGI", "setting": "[22]", "result": 72.1, "unit": "µM"}, {"measurement": "TGI", "setting": "[23]", "result": "> 35.9", "unit": "µM"}, {"measurement": "TGI", "setting": "[24]", "result": "> 100", "unit": "µM"}, {"measurement": "TGI", "setting": "[25]", "result": 0.151, "unit": "µM"}, {"measurement": "TGI", "setting": "[26]", "result": "> 100", "unit": "µM"}, {"measurement": "TGI", "setting": "[27]", "result": "> 100", "unit": "µM"}, {"measurement": "TGI", "setting": "[28]", "result": "> 100", "unit": "µM"}, {"measurement": "TGI", "setting": "[29]", "result": "> 100", "unit": "µM"}, {"measurement": "TGI", "setting": "[30]", "result": "> 100", "unit": "µM"}, {"measurement": "TGI", "setting": "[31]", "result": "> 100", "unit": "µM"}, {"measurement": "TGI", "setting": "[32]", "result": "> 100", "unit": "µM"}, {"measurement": "TGI", "setting": "[33]", "result": "> 100", "unit": "µM"}, {"measurement": "TGI", "setting": "[34]", "result": "> 100", "unit": "µM"}, {"measurement": "TGI", "setting": "[35]", "result": 8.65, "unit": "µM"}, {"measurement": "TGI", "setting": "[36]", "result": "> 100", "unit": "µM"}, {"measurement": "TGI", "setting": "[37]", "result": "> 100", "unit": "µM"}, {"measurement": "TGI", "setting": "[38]", "result": "> 100", "unit": "µM"}, {"measurement": "TGI", "setting": "[39]", "result": 2.11, "unit": "µM"}, {"measurement": "TGI", "setting": "[40]", "result": "> 80.5", "unit": "µM"}, {"measurement": "TGI", "setting": "[41]", "result": "> 100", "unit": "µM"}, {"measurement": "TGI", "setting": "[42]", "result": "> 100", "unit": "µM"}, {"measurement": "TGI", "setting": "[43]", "result": "> 100", "unit": "µM"}, {"measurement": "TGI", "setting": "[44]", "result": "> 100", "unit": "µM"}, {"measurement": "TGI", "setting": "[45]", "result": "> 100", "unit": "µM"}, {"measurement": "TGI", "setting": "[46]", "result": "> 100", "unit": "µM"}, {"measurement": "TGI", "setting": "[47]", "result": "> 100", "unit": "µM"}]}
